Measurements taken from patent publication US20140079740A1 (priority 2012, published 2014).
Like-named read-outs stand apart in the source and are kept apart here.

Key:
anesthesia and analgesia = conditions: cited from earlier work
[1] = cited from earlier work; for T1/2: biological half-life of metabolite
neuropathic pain = conditions: cited from earlier work
[2] = Dose linearity test for oral transmucosal S-ketamine formulations

CNC1(c2ccccc2Cl)CCCCC1=O (racemic) [Ketamine, dl-2-(o-chloro-phenyl)-2(methylamino)cyclohexanone]
duration of anesthesia (anesthesia and analgesia; IM administration): 12 to 25 min
time to anesthesia (anesthesia and analgesia; IM route): 3 to 4 min
time to anesthesia (anesthesia and analgesia; administered intravenously): ≤ 0.5 min
time to sensation of dissociation (anesthesia and analgesia; administered intravenously): 15 s
ketamine concentration at effective analgesia (anesthesia and analgesia; following oral dose): 40 ng/mL
Time to onset (anesthesia and analgesia; iv bolus, dosage 2 mg/kg): 30 to 60 s
duration of effect (anesthesia and analgesia; iv bolus, dosage 2 mg/kg): 10 to 15 min
plasma levels at which analgesic effects were observed (anesthesia and analgesia; sum of S- and R-isomer, intramuscular and intravenous administration): 100 to 200 ng/mL
T½ beta ([1]; biological half-life): 4.98 (1.56) h
Clearance ([1]; in vivo): 12 to 17 mL/kg/min
Metabolites excreted fecally ([1]; in vivo): 5%
Metabolites excreted renally ([1]; in vivo): 90%
Urinary excretion of unchanged drug ([1]; in vivo): 3-4%
administered dose excreted unchanged in urine ([1]; in vivo): 4%
alpha phase half-life ([1]; in vivo): 10 to 15 min
apparent volume of distribution ([1]; in vivo): 3.3 L/kg
beta phase half-life ([1]; in vivo): 2 to 3 h
clearance rate ([1]; in vivo): 1.3 L/min
distribution half-life ([1]; in vivo): 7 to 11 min
duration of alpha phase of distribution ([1]; in vivo): about 45 minutes
elimination half-life ([1]; in vivo): 2 to 3 h
elimination halftime ([1]; in vivo): about 2.5 hours
Bioavailability ([1]; intramuscular dose): 93%
time of peak plasma concentrations ([1]; intramuscular injection): 5 to 10 min
Bioavailability ([1]; intranasal dose): 25-50%
time of peak plasma concentrations ([1]; intravenous administration): ≤ 1 min
time of peak plasma concentrations ([1]; oral administration): 30 min
Bioavailability ([1]; oral dose): 20±7%
Bioavailability ([1]; orally administered, extensive first-pass metabolism): approximately 16%
time of peak absorption ([1]; rectal, in children): 45 min
oral bioavailability (AUC) relative to intravenous injection ([1]; single oral dose of 0.5 mg/kg): about 20%

N[C@]1(c2ccccc2Cl)CCCCC1=O [S-norketamine]
analgesic and anaesthetic effect relative to S-ketamine (anesthesia and analgesia; in vivo): five times weaker

NC1(c2ccccc2Cl)CCC=CC1=O (stereo not drawn) [Dehydronorketamine]
T1/2 [1]: 6.91 (1.71) h

NC1(c2ccccc2Cl)CCCCC1=O (stereo not drawn) [Norketamine]
peak plasma concentrations of norketamine ([1]; after oral administration of ketamine): 200 ng/mL
T1/2 [1]: 5.32 (1.70) h

CN[C@]1(c2ccccc2Cl)CCCCC1=O [S-Ketamine]
therapeutic index relative to R-Ketamine (anesthesia and analgesia; in vivo): 2.5 times
time to maximal pain reduction (neuropathic pain; after nasal application): 60 min
plasma concentrations of (S)-norketamine (neuropathic pain; between 30 and 180 min after intranasal administration): > 10 ng/mL
time to (S)-ketamine plasma-peak (neuropathic pain; intranasal): ≤ 15 min
time to decline of plasma level below 10 ng/ml (neuropathic pain; intranasal): ≤ 60 min
duration of reduction of ongoing neuropathic pain (neuropathic pain; low-dose intranasal administration): 2 to 3 h
range of dose linearity [2]: 10 to 300 mg
